Assays:
Experiment in all cases: Drug sensitivity assay (cell growth test), sulforhodamine B
Assay type in all cases: cell-based
Conditions in all cases: Homo sapiens, 72 hours, read-out: inhibition rate (%) by wortmannin, classification by grid analysis
HCC1143 (BL1) cells = tested on: HCC1143 (BL1) cells
Protocol: (§1) Cultured cells were treated with a MEK inhibitor and a PI3K inhibitor in various concentrations, and cell lines sensitive to MEK and PI3K were classified by calculating a cell growth inhibition rate. The culture method and analysis method are as follows.
(§2) Thirteen types of cells used in the present study, HCC38 (BL1), MDA-MB-231 (MSL), DU4475 (IM), HCC1187 (IM), HCC1143 (BL1), HCC1395 (LAR), HCC1937 (BL1), MDA-MB-453 (LAR), HCC70 (BL2), HS578T (MSL), MDA-MB-157 (MSL) and MDA-MB-468 (BL1), were obtained from American type culture collection (ATCC), and SUM185PE (LAR) was obtained from ASTERAND BIOSCIENCE. All the cells belong to triple negative breast cancer (TNBC), and it is known which of six types (BL1, BL2, M, MSL, IM and LAR) these belong to by an existing classification method.
(§3) All the cells were cultured in a medium designated from a source of supply, and 2 mM L-glutamine and 10% fetal bovine serum (FBS) were supplemented.
(§4) Each type of cells was seeded in a 96 well titer plate at 1×10^4 cells/well, and trametinib, an MEK inhibitor (Medchem Express; 0.08, 0.16, 0.31, 0.63, 1.25, 2.5, 5, 10 and 20 μM), and wortmannin, a PI3K inhibitor (Wako Pure Chemical Industries, Ltd.; 0.08, 0.16, 0.31, 0.63, 1.25, 2.5, 5, 10 and 20 μM) were dissolved in Dimethyl Sulfoxide [DMSO] (Wako Pure Chemical Industries, Ltd.) in various concentrations and treated. In addition, the effect on cell growth was examined at 72 hours after the inhibitor by sulforhodamine B assay (manufactured by SIGMA-ALDRICH), and 50 μL of sulforhodamine B solution was added to each well and cells were left at room temperature for an hour for staining. The staining degree of metabolically survival cells was examined by monitoring absorbance at a wavelength of 565 nm using a microtiter plate. The absorbance of cells which were not treated with trametinib and wortmannin (treated with DMSO) was used as a control and defined as 100% to calculate a cell growth inhibition rate.
(§5) The cell lines were classified into 4 types, cell lines sensitive to wortmannin (hereinafter, PA), cell lines sensitive to trametinib (hereinafter, MA), cell lines resistant to wortmannin and trametinib (hereinafter, R), and others (hereinafter, S). In the classification, first the inhibition rate of each drug was calculated in a concentration of 1 μM, and the inhibition rate (%) by trametinib and the inhibition rate (%) by wortmannin were plotted on the X axis and Y axis respectively on a graph.
as §5, with “100 nM,” for “1 μM,”
as §5, with “10” for “1”, “graph. Using a 50% growth inhibition rate as an index of the inhibitive effect of a drug, cells were classified into 4 types by grid analysis.” for “graph.”

HCC1187 (IM) cells = tested on: HCC1187 (IM) cells
Protocol: as §1, §2, §3, §4, §5
as §5, with “100 nM,” for “1 μM,”
as §5, with “10” for “1”, “graph. Using a 50% growth inhibition rate as an index of the inhibitive effect of a drug, cells were classified into 4 types by grid analysis.” for “graph.”

HCC1395 (LAR) cells = tested on: HCC1395 (LAR) cells
Protocol: as §1, §2, §3, §4, §5
as §5, with “100 nM,” for “1 μM,”
as §5, with “10” for “1”, “graph. Using a 50% growth inhibition rate as an index of the inhibitive effect of a drug, cells were classified into 4 types by grid analysis.” for “graph.”

HCC1937 (BL1) cells = tested on: HCC1937 (BL1) cells
Protocol: as §1, §2, §3, §4, §5
as §5, with “100 nM,” for “1 μM,”
as §5, with “10” for “1”, “graph. Using a 50% growth inhibition rate as an index of the inhibitive effect of a drug, cells were classified into 4 types by grid analysis.” for “graph.”

HCC38 (BL1) cells = tested on: HCC38 (BL1) cells
Protocol: as §1, §2, §3, §4, §5
as §5, with “100 nM,” for “1 μM,”
as §5, with “10” for “1”, “graph. Using a 50% growth inhibition rate as an index of the inhibitive effect of a drug, cells were classified into 4 types by grid analysis.” for “graph.”

HCC70 (BL2) cells = tested on: HCC70 (BL2) cells
Protocol: as §1, §2, §3, §4, §5
as §5, with “100 nM,” for “1 μM,”
as §5, with “10” for “1”, “graph. Using a 50% growth inhibition rate as an index of the inhibitive effect of a drug, cells were classified into 4 types by grid analysis.” for “graph.”

MDA-MB-231 (MSL) cells = tested on: MDA-MB-231 (MSL) cells
Protocol: as §1, §2, §3, §4, §5
as §5, with “100 nM,” for “1 μM,”
as §5, with “10” for “1”, “graph. Using a 50% growth inhibition rate as an index of the inhibitive effect of a drug, cells were classified into 4 types by grid analysis.” for “graph.”

MDA-MB-453 (LAR) cells = tested on: MDA-MB-453 (LAR) cells
Protocol: as §1, §2, §3, §4, §5
as §5, with “100 nM,” for “1 μM,”
as §5, with “10” for “1”, “graph. Using a 50% growth inhibition rate as an index of the inhibitive effect of a drug, cells were classified into 4 types by grid analysis.” for “graph.”

MDA-MB-468 (BL1) cells = tested on: MDA-MB-468 (BL1) cells
Protocol: as §1, §2, §3, §4, §5
as §5, with “100 nM,” for “1 μM,”
as §5, with “10” for “1”, “graph. Using a 50% growth inhibition rate as an index of the inhibitive effect of a drug, cells were classified into 4 types by grid analysis.” for “graph.”

SUM185PE (LAR) cells = tested on: SUM185PE (LAR) cells
Protocol: as §1, §2, §3, §4, §5
as §5, with “100 nM,” for “1 μM,”
as §5, with “10” for “1”, “graph. Using a 50% growth inhibition rate as an index of the inhibitive effect of a drug, cells were classified into 4 types by grid analysis.” for “graph.”

COC[C@H]1OC(=O)c2coc3c2[C@@]1(C)C1=C(C3=O)[C@@H]2CCC(=O)[C@@]2(C)C[C@H]1OC(C)=O [wortmannin, Wortmannin]
inhibition at 0.1 µM (HCC1143 (BL1) cells; HCC1143, 100 nM, index 12.5% growth inhibition rate): < 12.5% | inhibition at 1 µM (HCC1143 (BL1) cells; HCC1143, 1 μM, index 25% growth inhibition rate): < 25% | inhibition at 10 µM (HCC1143 (BL1) cells; HCC1143, 10 μM, index 50% growth inhibition rate): < 50% | inhibition at 0.1 µM (HCC1187 (IM) cells; HCC1187, 100 nM, index 12.5% growth inhibition rate): < 12.5% | inhibition at 1 µM (HCC1187 (IM) cells; HCC1187, 1 μM, index 25% growth inhibition rate): < 25% | inhibition at 10 µM (HCC1187 (IM) cells; HCC1187, 10 μM, index 50% growth inhibition rate): < 50% | inhibition at 0.1 µM (HCC1395 (LAR) cells; HCC1395, 100 nM, index 12.5% growth inhibition rate): < 12.5% | inhibition at 1 µM (HCC1395 (LAR) cells; HCC1395, 1 μM, index 25% growth inhibition rate): < 25% | inhibition at 10 µM (HCC1395 (LAR) cells; HCC1395, 10 μM, index 50% growth inhibition rate): < 50% | inhibition at 0.1 µM (HCC1937 (BL1) cells; HCC1937, 100 nM, index 12.5% growth inhibition rate): < 12.5% | inhibition at 1 µM (HCC1937 (BL1) cells; HCC1937, 1 μM, index 25% growth inhibition rate): < 25% | inhibition at 10 µM (HCC1937 (BL1) cells; HCC1937, 10 μM, index 50% growth inhibition rate): < 50% | inhibition at 0.1 µM (HCC38 (BL1) cells; HCC38, 100 nM, index 12.5% growth inhibition rate): < 12.5% | inhibition at 1 µM (HCC38 (BL1) cells; HCC38, 1 μM, index 25% growth inhibition rate): < 25% | inhibition at 10 µM (HCC38 (BL1) cells; HCC38, 10 μM, index 50% growth inhibition rate): < 50% | inhibition at 0.1 µM (HCC70 (BL2) cells; HCC70, 100 nM, index 12.5% growth inhibition rate): > 12.5% | inhibition at 1 µM (HCC70 (BL2) cells; HCC70, 1 μM, index 25% growth inhibition rate): > 25% | inhibition at 10 µM (HCC70 (BL2) cells; HCC70, 10 μM, index 50% growth inhibition rate): > 50% | inhibition at 0.1 µM (MDA-MB-231 (MSL) cells; MDA-MB-231, 100 nM, index 12.5% growth inhibition rate): < 12.5% | inhibition at 1 µM (MDA-MB-231 (MSL) cells; MDA-MB-231, 1 μM, index 25% growth inhibition rate): < 25% | inhibition at 10 µM (MDA-MB-231 (MSL) cells; MDA-MB-231, 10 μM, index 50% growth inhibition rate): < 50% | inhibition at 0.1 µM (MDA-MB-453 (LAR) cells; MDA-MB-453, 100 nM, index 12.5% growth inhibition rate): > 12.5% | inhibition at 1 µM (MDA-MB-453 (LAR) cells; MDA-MB-453, 1 μM, index 25% growth inhibition rate): > 25% | inhibition at 10 µM (MDA-MB-453 (LAR) cells; MDA-MB-453, 10 μM, index 50% growth inhibition rate): > 50% | inhibition at 0.1 µM (MDA-MB-468 (BL1) cells; MDA-MB-468, 100 nM, index 12.5% growth inhibition rate): > 12.5% | inhibition at 1 µM (MDA-MB-468 (BL1) cells; MDA-MB-468, 1 μM, index 25% growth inhibition rate): > 25% | inhibition at 10 µM (MDA-MB-468 (BL1) cells; MDA-MB-468, 10 μM, index 50% growth inhibition rate): > 50% | inhibition at 0.1 µM (SUM185PE (LAR) cells; 100 nM, index 12.5% growth inhibition rate): > 12.5% | inhibition at 1 µM (SUM185PE (LAR) cells; 1 μM, index 25% growth inhibition rate): > 25% | inhibition at 10 µM (SUM185PE (LAR) cells; 10 μM, index 50% growth inhibition rate): > 50%

Reference: patent US10995359B2, “Method for determining drug-sensitive human cell lines by analysis method in which measurement of activity of two types of protein kinase is used” (NITTO BOSEKI CO., LTD., priority 2015, dated 2021)
